Columns and labels:
Assay in all cases: relative viability (nuclei count vs DMSO), 5 days (fraction); higher = more cells survive
[1] = compound: C1=CC(=CC=C1C2=CC(=C(S2)NC(=O)N)C(=O)N)F [TPCA-1] + O=C(CCCCCCC(=O)Nc1ccccc1)NO [Vorinostat] (partner 1 µM)
Method in brief: (§1)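 Five library-drug doses in √10 steps were combined with a fixed anchor-drug dose, or a single drug was given alone, by pin tool to lung cancer cell lines in 1536-well plates the day after seeding. Nuclei were stained and counted after 5 days. Relative viability is the nuclei count in treated wells over that in vehicle wells, taken as the median of duplicate plates.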

[2] = compound: C1=CC(=CC=C1C2=CC(=C(S2)NC(=O)N)C(=O)N)F [TPCA-1] + CC(=O)c1c(C)c2cnc(Nc3ccc(N4CCNCC4)cn3)nc2n(C2CCCC2)c1=O [Palbociclib] (partner 0.5 µM)
Method in brief: as §1

[3] = compound: C1/C(=C\C2=CC=CS2)/C(=O)/C(=C/C3=CC=CS3)/C1 + CC(C)C[C@H](NC(=O)[C@H](Cc1ccccc1)NC(=O)c1cnccn1)B(O)O [Bortezomib] (partner 0.002 µM)
Method in brief: as §1

[4] = compound: C[C@]12O[C@H](C[C@]1(O)CO)n1c3ccccc3c3c4c(c5c6ccccc6n2c5c31)CNC4=O [Lestaurtinib] + Cc1cc(Nc2cc(N3CCN(C)CC3)nc(Sc3ccc(NC(=O)C4CC4)cc3)n2)n[nH]1 [Tozasertib] (partner 0.1 µM)
Method in brief: as §1

UMC-11 was tested, and the relative viability ([1]; first compound 0.04 µM) was 0.447, the relative viability ([1]; first compound 0.1265 µM) was 0.358 and the relative viability ([1]; first compound 0.4 µM) was 0.368. The relative viability ([1]; first compound 1.265 µM) was 0.378, the relative viability ([1]; first compound 4 µM) was 0.214 and the relative viability ([2]; first compound 0.04 µM) was 0.354. For the same cell line, the relative viability ([2]; first compound 0.1265 µM) was 0.316, the relative viability ([2]; first compound 0.4 µM) was 0.299 and the relative viability ([2]; first compound 1.265 µM) was 0.408. For the same cell line, the relative viability ([2]; first compound 4 µM) was 0.289, the relative viability ([3]; first compound 0.2 µM) was 0.717 and the relative viability ([3]; first compound 0.6325 µM) was 0.579. For the same cell line, the relative viability ([3]; first compound 2 µM) was 0.639, the relative viability ([3]; first compound 20 µM) was 0.597 and the relative viability ([4]; first compound 0.005 µM) was 0.21. It also gave a relative viability ([4]; first compound 0.01581 µM) of 0.206, a relative viability ([4]; first compound 0.05 µM) of 0.217 and a relative viability ([4]; first compound 0.1581 µM) of 0.18. For the same cell line, the relative viability ([4]; first compound 0.5 µM) was 0.179.
